According to patent publication US20220204497A1, “NOVEL COMPOUND HAVING ANTICANCER ACTIVITY, AND METHOD FOR PRODUCING SAME” (MEDICINAL BIOCONVERGENCE RESEARCH CENTER, priority 2019, published 2022):
Where “and” joins values, the source holds several entries; their conditions need not be identical. Equal values may be shown once.

Columns and labels:
AIMP2-DX2 = target: T1, AIMP2-DX2 (Homo sapiens, UniProt Q13155); assay: DX2-nanoluciferase assay (DX2 expression change) in transfected A549 cells; conditions: for DX-Nanoluciferase activity (10 μM) / DX-Nanoluciferase activity (40 μM): 4 hours treatment, A549 cells transfected with nanoluciferase-DX2; for inhibition at 10 µM / inhibition at 40 µM: A549, 4 h; for inhibition at 10 µM: read-out: DX-Nanoluciferase activity (10 μM), 10 μM, 4 hours treatment, A549 cells transfected with nanoluciferase-DX2; for inhibition at 40 µM: read-out: DX-Nanoluciferase activity (40 μM), 40 μM, 4 hours treatment, A549 cells transfected with nanoluciferase-DX2; for inhibition at 40 µM / DX-Nanoluciferase activity (40 μM): inhibitory effect on AIMP2-DX2 expression
T1 sequence (Q13155 1-251 isoform Q13155-2): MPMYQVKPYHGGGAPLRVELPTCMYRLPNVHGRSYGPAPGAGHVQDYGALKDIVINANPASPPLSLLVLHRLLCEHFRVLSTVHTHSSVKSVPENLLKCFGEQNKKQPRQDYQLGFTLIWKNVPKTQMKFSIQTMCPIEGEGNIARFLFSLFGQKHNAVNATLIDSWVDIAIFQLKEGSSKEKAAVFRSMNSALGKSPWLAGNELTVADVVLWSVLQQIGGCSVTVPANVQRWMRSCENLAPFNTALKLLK
Experimental: After cloning DX2 into a plasmid expressing nanoluciferase, the plasmid was transfected into A549 cells. Transfected cells were seeded 1×10^4 per well in a 96-well plate and stabilized for 12 hours. […] Cell viability was measured by the MTT method after 72 hours of treatment with each concentration of the compound in A549 cells.

A549 cells = assay: Cell viability by MTT method in A549 cells; format: cell-based; design: concentration or dose not given beside the values; conditions: 72 hours treatment

## CC(C)(C)c1ccc(S(=O)(=O)N[C@@H](Cc2c[nH]c3ccccc23)C(=O)Nc2ccc(N3CCOCC3)cc2)cc1 [Compound 106, (S)-2-(4-tert-Butylphenylsulfonamido)-3-(1H-indol-3-yl)-N-(4-morpholinophenyl)propan amide]
AIMP2-DX2
  DX-Nanoluciferase activity (10 μM): 68.14 ± 9.57 (10 μM)
A549 cells
  Cell Viability (% inhibition) (A549): 17.13 ± 5.35%

## CCOC(=O)c1ccc(S(=O)(=O)N[C@@H](Cc2c[nH]c3ccccc23)C(=O)Nc2ccc(N3CCOCC3)cc2)cc1 [Compound 114, (S)-Ethyl 4-(N-(3-(1H-indol-3-yl)-1-(4-morpholinophenylamino)-1-oxopropan-2-yl)sulfamoyl)benzoate]
AIMP2-DX2
  inhibition at 10 µM: 3.48 ± 8.58%
A549 cells
  Cell Viability (% inhibition) (A549): 47.88 ± 0.53%

## CC(C)C[C@H](NS(=O)(=O)c1cccc(N)c1)C(=O)N1CCOCC1 [Compound 20, (S)-3-amino-N-(4-methyl-1-morpholino-1-oxopentan-2-yl)benzenesulfonamide]
AIMP2-DX2
  inhibition at 40 µM: 31 ± 9.9%
A549 cells
  Cell Viability (% inhibition) (A549): 24.57%

## O=C(NNC(=O)C12CC3CC(CC(C3)C1)C2)[C@H](Cc1c[nH]c2ccccc12)NS(=O)(=O)c1ccc(Br)cc1 [Compound 197, N—((S)-1-(2-((3S,5S,7S)-adamantane-1-carbonyl)hydrazinyl)-3-(1H-indol-3-yl)-1-oxopropan-2-yl)-4-bromobenzenesulfonamide]
AIMP2-DX2
  DX-Nanoluciferase activity (10 μM): 43.54 ± 5.26 (10 μM) and 43.64 ± 5.26 (10 μM)
A549 cells
  Cell Viability (% inhibition) (A549): 84.86 ± 1.09%

## Cc1ccc(S(=O)(=O)N[C@H](C(=O)Nc2ccc(N3CCOCC3)cc2)[C@H](C)O)cc1 [Compound 42, (2S,3S)-3-hydroxy-2-(4-methylphenylsulfonamido)-N-(4-morpholinophenyl)butanamide]
AIMP2-DX2
  inhibition at 40 µM: -12.8 ± 10.6%
A549 cells
  Cell Viability (% inhibition) (A549): 13.24 ± 6.93%

## O=C(Nc1ccc(N2CCOCC2)cc1)[C@H](Cc1c[nH]c2ccccc12)NS(=O)(=O)c1ccc(Br)cc1 [Compound 79, (S)-2-(4-Bromophenylsulfonamido)-3-(1H-indol-3-yl)-N-(4-morpholinophenyl)propanamide]
AIMP2-DX2
  inhibition at 40 µM: 30.6 ± 15.3%
A549 cells
  Cell Viability (% inhibition) (A549): 78.31 ± 1.91%

## Cc1ccc(S(=O)(=O)N[C@@H](Cc2c[nH]c3ccccc23)C(=O)Nc2nc(C)cs2)cc1 [Compound 111, (S)-3-(1H-indol-3-yl)-2-(4-methylphenylsulfonamido)-N-(4-methylthiazol-2-yl)propanamide]
AIMP2-DX2
  DX-Nanoluciferase activity (40 μM): 25.61 ± 22.32
A549 cells
  Cell Viability (% inhibition) (A549): 11.65 ± 6.05%

## CC(=O)N1CCN(c2ccc(NC(=O)[C@H](Cc3c[nH]c4ccccc34)NS(=O)(=O)c3ccc(C)cc3)cc2)CC1 [Compound 162, (S)—N-(4-(4-Acetylpiperazin-1-yl)phenyl)-3-(1H-indol-3-yl)-2-(4-methylphenylsulfonamido)propanamide]
AIMP2-DX2
  inhibition at 10 µM: 20.6 ± 3.17%
A549 cells
  Cell Viability (% inhibition) (A549): 19.92 ± 16.25%

## Cc1ccc(S(=O)(=O)N[C@@H](Cc2c[nH]c3ccccc23)C(=O)NCCc2ccc(Br)cc2)cc1 [Compound 221, (S)—N-(4-bromophenethyl)-3-(1H-indol-3-yl)-2-(4-methylphenylsulfonamido)propanamide]
AIMP2-DX2
  inhibition at 10 µM: 40.1 ± 3.09%
A549 cells
  Cell Viability (% inhibition) (A549): 97.31 ± 0.8%

## CNC(=O)c1ccc(S(=O)(=O)N[C@@H](Cc2c[nH]c3ccccc23)C(=O)Nc2ccc(N3CCOCC3)cc2)cc1 [Compound 116, (S)-4-(N-(3-(1H-indol-3-yl)-1-(4-morpholinophenylamino)-1-oxopropan-2-yl)sulfamoyl)-N-methylbenzamide]
AIMP2-DX2
  inhibition at 10 µM: -0.11 ± 15.1%
A549 cells
  Cell Viability (% inhibition) (A549): 34.22 ± 7.94%

## COc1cc(N2CCOCC2)ccc1NC(=O)[C@H](Cc1c[nH]c2ccccc12)NS(=O)(=O)c1ccc(C)cc1 [Compound 123, (S)-3-(1H-indol-3-yl)-N-(2-methoxy-4-morpholinophenyl)-2-(4-methylphenylsulfonamido)propanamide]
AIMP2-DX2
  inhibition at 10 µM: 22.4 ± 11.8%
A549 cells
  Cell Viability (% inhibition) (A549): 34.01 ± 10.45%

## Cc1ccc(-c2csc(NC(=O)[C@H](CC(C)C)N(C)S(=O)(=O)c3ccccc3)n2)cc1 [Compound 97, (S)-4-Methyl-2-(methylphenylsulfonamido)-N-(4p-tolylthiazol-2-yl)pentanamide]
AIMP2-DX2
  inhibition at 40 µM: 15.1 ± 2.59%
A549 cells
  Cell Viability (% inhibition) (A549): 67.10 ± 7.93%

## CC(C)C[C@H](NC(=O)CCS(=O)(=O)c1ccccc1)C(=O)Nc1ccc(N2CCOCC2)cc1 [Compound 61, (S)-4-Methyl-N-(4-morpholinophenyl)-2-(3-(phenylsulfonyl)propanamido)pentanamide]
AIMP2-DX2
  inhibition at 40 µM: 60.3 ± 4.8%
A549 cells
  Cell Viability (% inhibition) (A549): −1.25 ± 3.63%

## CCOC(=O)C(Cc1c[nH]c2ccccc12)NC(=O)[C@H](Cc1c[nH]c2ccccc12)NS(=O)(=O)c1ccc(C)cc1 (stereo partly drawn) [Compound 224, Ethyl 2-((S)-3-(1H-indol-3-yl)-2-(4-methylphenylsulfonamido)propanamido)-3-(1H-indol-3-yl)propanoate]
AIMP2-DX2
  inhibition at 10 µM: 42.7 ± 8.97%
A549 cells
  Cell Viability (% inhibition) (A549): 93.83 ± 0.34%

## COc1ccc(CCNC(=O)[C@H](Cc2c[nH]c3ccccc23)NS(=O)(=O)c2ccc(Br)cc2)cc1 [Compound 199, (S)-2-(4-Bromophenylsulfonamido)-3-(1H-indol-3-yl)-N-(4-methoxyphenethyl)propanamide]
AIMP2-DX2
  inhibition at 40 µM: 30.6 ± 8.13%
A549 cells
  Cell Viability (% inhibition) (A549): 84.34 ± 0.87%

## CC(C)C[C@H](NC(=O)Nc1ccccc1)C(=O)N1CCOCC1 [Compound 56, (S)-1-(4-Methyl-1-morpholino-1-oxopentan-2-yl)-3-phenylurea]
AIMP2-DX2
  inhibition at 40 µM: 33 ± 10.7%
A549 cells
  Cell Viability (% inhibition) (A549): 32.07%

## O=C(Nc1nc(-c2ccc(C(F)(F)F)cc2)cs1)[C@H](Cc1c[nH]c2ccccc12)NS(=O)(=O)c1ccc(Br)cc1 [Compound 193, (S)-2-(4-Bromophenylsulfonamido)-3-(1H-Indol-3-yl)-N-(4-(4-(trifluoromethyl)phenyl)thiazol-2-yl)propanamide]
AIMP2-DX2
  inhibition at 10 µM: 49.3 ± 9.52%
A549 cells
  Cell Viability (% inhibition) (A549): 88.98 ± 0.59% and 88.98 ± 10.59%

## Cc1ccc(S(=O)(=O)N[C@@H](Cc2c[nH]c3ccc(O)cc23)C(=O)Nc2ccc(N3CCOCC3)cc2)cc1 [Compound 69, (S)-3-(5-Hydroxy-1H-indol-3-yl)-2-(4-methylphenylsulfonamido)-N-(4-morpholinophenyl)propanamide]
AIMP2-DX2
  inhibition at 40 µM: 48.4 ± 11.6%
A549 cells
  Cell Viability (% inhibition) (A549): 20.62 ± 5.14%

## O=C(Nc1nccs1)[C@H](Cc1c[nH]c2ccccc12)NS(=O)(=O)c1ccc(Br)cc1 [Compound 109, (S)-2-(4-Bromophenylsulfonamido)-3-(1H-indol-3-yl)-N-(thiazol-2-yl)propanamide]
AIMP2-DX2
  inhibition at 40 µM: 57.5 ± 9.11%
A549 cells
  Cell Viability (% inhibition) (A549): 4.14 ± 1.04%

## Cc1cc(C)n(C(=O)[C@H](Cc2c[nH]c3ccccc23)NS(=O)(=O)c2ccc(Br)cc2)n1 [Compound 184, (S)-4-Bromo-N-(1-(3,5-dimethyl-1H-pyrazol-1-yl)-3-(1H-indol-3-yl)-1-oxopropan-2-yl)benzenesulfonamide]
AIMP2-DX2
  inhibition at 10 µM: 78.4%
A549 cells
  Cell Viability (% inhibition) (A549): −24.64 ± 2.77%

## COc1ccc(N2CCN(C(=O)[C@H](Cc3c[nH]c4ccccc34)NS(=O)(=O)c3ccc(C)cc3)CC2)cc1 [Compound 203, (S)—N-(3-(1H-indol-3-yl)-1-(4-(4-methoxyphenyl)piperazin-1-yl)-1-oxopropan-2-yl)-4-methylbenzenesulfonamide]
AIMP2-DX2
  inhibition at 40 µM: 35.1 ± 14.2%
A549 cells
  Cell Viability (% inhibition) (A549): 48.15 ± 3.26%

## Cc1ccc(S(=O)(=O)N[C@@H](Cc2c[nH]c3ccccc23)C(=O)NNC(=O)C23CC4CC(CC(C4)C2)C3)cc1 [Compound 186, N—((S)-1-(2-((3S,5S,7S)-adamantane-1-carbonyl)hydrazinyl)-3-(1H-indol-3-yl)-1-oxopropan-2-yl)-4-methylbenzenesulfonamide]
AIMP2-DX2
  DX-Nanoluciferase activity (10 μM): 78.43 ± 6.05 (10 μM)
A549 cells
  Cell Viability (% inhibition) (A549): 59.96 ± 10.37%

## CC(C)C[C@H](NC(=O)c1ccc2c(c1)OCO2)C(=O)Nc1ccc(N2CCOCC2)cc1 [Compound 60, (S)—N-(4-Methyl-1-(4-morpholinophenylamino)-1-oxopentan-2-yl)benzo[d][1,3]dioxole-5-carboxamide]
AIMP2-DX2
  inhibition at 40 µM: 35.7 ± 10.2%
A549 cells
  Cell Viability (% inhibition) (A549): 9.46 ± 9.67%

## COc1ccc(C(=O)NNC(=O)[C@H](Cc2c[nH]c3ccccc23)NS(=O)(=O)c2ccc(C)cc2)cc1 [Compound 191, (S)—N-(3-(1H-Indol-3-yl)-1-(2-(4-methoxybenzoyl)hydrazinyl)-1-oxopropan-2-yl)-4-methylbenzenesulfonamide]
AIMP2-DX2
  DX-Nanoluciferase activity (10 μM): 8.09 ± 6.94 (10 μM)
A549 cells
  Cell Viability (% inhibition) (A549): 49.17 ± 2.36%

## CC(C)C[C@H](NC(=O)CCS(=O)(=O)c1ccccc1)C(=O)OCc1ccccc1 [Compound 28, (S)-Benzyl 4-methyl-2-(3-(phenylsulfonyl)propanamido)pentanoate]
AIMP2-DX2
  DX-Nanoluciferase activity (40 μM): 57.4 ± 8.4
A549 cells
  Cell Viability (% inhibition) (A549): 12.43 ± 8.58%

## CC(C)C[C@H](NC(=O)c1ccc(C(C)(C)C)cc1)C(=O)N1CCOCC1 [Compound 57, (S)-4-tert-Butyl-N-(4-methyl-1-morpholino-1-oxopentan-2-yl)benzamide]
AIMP2-DX2
  inhibition at 40 µM: 63.8 ± 11%
A549 cells
  Cell Viability (% inhibition) (A549): −4.86 ± 4.95%

## COc1ccc(NC(=O)NNC(=O)[C@H](Cc2c[nH]c3ccccc23)NS(=O)(=O)c2ccc(C)cc2)cc1 [Compound 183, (S)-2-(3-(1H-indol-3-yl)-2-(4-methylphenylsulfonamido)propanoyl)-N-(4-methoxyphenyl)hydrazinecarboxamide]
AIMP2-DX2
  inhibition at 10 µM: 68.1 ± 8.2%
A549 cells
  Cell Viability (% inhibition) (A549): 42.25 ± 5.21%
